Several values for one entry are separate records, joined by “and”; a condition that tells them apart may be missing. Equal entries are not always repeated.
Tests used:
CSBP/p38 [1] = molecular target: T1, CSBP/p38 (Homo sapiens, UniProt Q16539); assay: Fluorescence Anisotropy Kinase Binding Assay; conditions: pKi is the negative log of the Ki; p38 enzyme 12 nM, fluorescent ligand 5 nM
Experimental: The concentration of kinase enzyme should preferably be ≧1×Kf. The concentration of fluorescent ligand required will depend on the instrumentation used, and the fluorescent and physicochemical properties. The concentration used must be lower than the concentration of kinase enzyme, and preferably less than half the kinase enzyme concentration.
All components dissolved in Buffer of final composition 62.5 mM HEPES, pH 7.5, 1.25 mM CHAPS, 1.25 mM […], 12.5 mM MgCl2 3.3% DMSO.
p38 Enzyme concentration: 12 nM
Fluorescent ligand concentration: 5 nM
Test compound concentration: 0.1 nM-100 uM
Components incubated in 30 ul final volume in NUNC 384 well black microtitre plate until equilibrium reached (5-30 mins)
Fluorescence anisotropy read in LJL Acquest.
Definitions: Ki=dissociation constant for inhibitor binding
• Kf=dissociation constant for fluorescent ligand binding The fluorescent ligand is the following compound:
[drawing 13] which is derived from 5-[2-(4-aminomethylphenyl)-5-pyridin-4-yl-1H-imidazol-4-yl]-2-chlorophenol and rhodamine green.

CSBP/p38 [2] = molecular target: T1, CSBP/p38; assay: CSBP/p38 Kinase Assay (32P transfer to EGFR-derived T669 peptide); format: biochemical; set-up: made in house; host or cells: yeast; conditions: for IC50: 0.17 mM ATP, 0.67 mM T669 peptide, 2-4 nM yeast-expressed activated p38, 25 min at 37° C.; for active as inhibitors of the CSBP kinase: statement in words, assay not given
Experimental: This assay measures the CSBP/p38-catalyzed transfer of ^32P from [a-^32P]ATP to threonine residue in an epidermal growth factor receptor (EGFR)-derived peptide (T669) with the following sequence: […] (SEQ ID 1) (residues 661-681). (See Gallagher et al., “Regulation of Stress Induced Cytokine Production by Pyridinyl Imidazoles: Inhibition of CSBP Kinase”, BioOrganic & Medicinal Chemistry, 1997, 5, 49-64).
Reactions are carried in round bottom 96 well plate (from Corning) in a […] volume. […] Filters are washed with 75 mM phosphoric acids, and incorporated 32P was quantified using beta scintillation counter. Under these conditions, the specific activity of p38 will be determined and is generally 400-450 pmol/pmol enzyme, and the activity being linear for up to 2 hours of incubation. The kinase activity values are obtained after subtracting values generated in the absence of substrate which were 10-15% of total values.

T1 sequence (Q16539 whole entry): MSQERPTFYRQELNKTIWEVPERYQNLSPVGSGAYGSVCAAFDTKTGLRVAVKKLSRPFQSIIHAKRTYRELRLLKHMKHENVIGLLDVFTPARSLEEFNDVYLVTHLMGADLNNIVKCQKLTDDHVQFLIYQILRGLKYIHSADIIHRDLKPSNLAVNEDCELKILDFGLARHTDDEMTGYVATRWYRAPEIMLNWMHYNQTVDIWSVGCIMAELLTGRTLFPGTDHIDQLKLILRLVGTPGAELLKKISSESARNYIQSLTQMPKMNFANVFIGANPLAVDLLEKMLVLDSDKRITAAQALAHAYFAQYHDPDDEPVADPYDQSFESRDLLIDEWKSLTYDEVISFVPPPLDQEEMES

Ki (CSBP/p38 [1]) | IC50 (CSBP/p38 [2]) | active as inhibitors of the CSBP kinase (CSBP/p38 [2]) | Structure (SMILES)
20 nM and 12.6 nM |  |  | COc1cc2c(ccc(=O)n2-c2ccccc2Cl)c(-c2ccccc2Cl)c1Br (single isomer, unassigned) [Example 17, 6-bromo-1,5-bis(2-chlorophenyl)-7-(methyloxy)-2(1H)-quinolinone]
 | 60 nM |  | O=c1ccc2c(-c3ccccc3)nccc2n1Cc1ccccc1 [Example 9, 1-Benzyl-5-phenyl-1H-[1,6]naphthyridin-2-one]
 | 200 nM |  | O=c1ccc2c(-c3ccccc3)nccc2n1-c1ccccc1 [Example 10, 1,5-Diphenyl-1H-[1,6]naphthyridin-2-one]
 | 5000 nM | active | Cn1c(=O)ccc2c(-c3ccccc3)nccc21 [Example 11, 1-Methyl-5-phenyl-1H-[1,6]naphthyridin-2-one]
 | 13400 nM | active | O=c1ccc2c(-c3ccccc3)nccc2[nH]1 [Example 12, 5-Phenyl-1H-[1,6]naphthyridin-2-one]

From US7550480B2, “Compounds” (SmithKline Beecham Corporation, priority 2003, dated 2009)
